Values joined by “and” are separate entries in the source; they are usually repeats but may differ in a detail not shown here. Equal values may be shown once.
Tests used:
[1] = system: Trichostrongylidae (Trichostrongylus colubriformis); assay: Anthelmintic test against sheep Trichostrongylidae in naturally infected sheep, E.P.G. on 7th day (Test Examples A7, B7, C7, D7); type: in vivo; conditions: one administration of 15 mg/Kg
Procedure: Two sheep infected with Trichostrongylidae (naturally infected sheep) were employed.
The compound provided for the test was Compound No. Al, 15 mg of which was placed in a gelatin capsule per 1 Kg of body weight and administered orally to one of the sheep. As a control, only gelatin capsules were administered orally to the other sheep.
Before administration and on the 7th day after administration, fecal matter testing was conducted to calculate the E.P.G., and the anthelmintic effect was judged by the changing of the E.P.G. to negative.
As control, only gelatin capsules were administered orally to the other sheep.
As control, only gelatin capsule was administered orally to the other sheep.

[2] = system: canine strongyloides (Strongyloides stercoralis); assay: Anthelmintic test against canine strongyloides in naturally infected dogs, E.P.G. on 7th day (Test Examples A4, B4, C4, D4); type: in vivo
[3] = system: fowl roundworm (Ascaridia galli); assay: Anthelmintic test in chickens artificially infected with fowl roundworm, single oral dose in gelatin capsule, worm bodies counted within 48 hours (Test Examples A1, B1, C1, D1); type: in vivo; conditions: Ascaridia galli, po, 48 h, chicken, chickens No.1-3, read-out: Anthelmintic effect after 48 hours
Procedure, shortened: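 Anthelmintic percentage derived from counts of worms passed within 48 h plus worms left in the intestine after killing at 48 h. Infection confirmed by fecal examination in three-bird groups; compound given orally once in gelatin capsules at 10/20 (A1, B1), 30/50 (C1) or 15/30 (D1) mg/kg.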

[4] = system: fowl roundworm (As. galli); assay: Anthelmintic test in chickens artificially infected with fowl roundworm, compound added to feed, E.P.G. and worm count up to 21st day (Test Examples A2, B2, C2, D2); type: in vivo, Ascaridia galli; conditions: Ascaridia galli, feed or water, 504 h, chicken, read-out: Anthelmintic effect
[5] = system: Trichostrongylidae (Trichostrongylus colubriformis); assay: Anthelmintic test against sheep Trichostrongylidae in naturally infected sheep, E.P.G. on 7th day (Test Examples A7, B7, C7, D7); type: in vivo; conditions: Trichostrongylus colubriformis

CC=CCON(CC=CC)C(C)=O [Compound C10]
anthelmintic effect [1]: marked anthelmintic effect
Change of E.P.G. 7th day ([2]; dog, Strongyloides stercoralis, 30 mg/Kg oral in gelatin capsule, one administration): 0
Change of E.P.G. Before administration ([2]; dog, Strongyloides stercoralis, before 30 mg/Kg oral (baseline)): 2,300 and 3,100
anthelmintic effect ([2]; dogs, one administration of 30 mg/Kg): marked anthelmintic effect
inhibition in vivo at 30 mg/kg ([3]; 30 mg/Kg oral in gelatin capsule): 80 to 90%
inhibition in vivo at 50 mg/kg ([3]; 50 mg/Kg oral in gelatin capsule): 100%
inhibition in vivo at 25 ppm ([4]; 25 ppm in feed): 80 to 90%
inhibition in vivo at 50 ppm ([4]; 50 ppm in feed): 100%
Change of E.P.G. 7th day ([5]; 20 mg/Kg oral in gelatin capsule, one administration): 0
Change of E.P.G. Before administration ([5]; before 20 mg/Kg oral (baseline)): 1,800

Source: patent EP0103895A2, “Novel hydroxylamine derivatives, production and use thereof” (MEIJI SEIKA KABUSHIKI KAISHA, priority 1982, dated 1984)
